Experimental data reported in patent publication US5726203A, “Qinghaosu derivatives against AIDS” (priority 1993, dated 1998).

How the values were obtained:
[1] = system: U937 HIV-1; assay: Inhibition effect on HIV-1 infected U937 cells, activity of reverse transcriptase; format: cell-based; details: 50 μg/ml, control 24502
Excerpt: Furthermore, a part of the compounds according to the present invention were used to test their inhibition effect on U937 cell line (macrophage cell line)according to the methods in Experiment 1.

[2] = system: Plasmodium Berghei; assay: Peters' four day inhibition test in mice, erythrocytic stage of Plasmodium Berghei; format: in vivo; details: once a day D0-D3, Hybrid Kunming strain mice, read-out: SD50 (the source's name)
Excerpt: Effect on Erythrocytic Stage of Plasmodium Berghei 1. "Four day inhibition test" in mice To determinate the SD50 with Peters' "four day inhibition test". Hybrid Kunming strain mice, body weight 18-22 g, were inculated with 1×10^7 parasites infected RBC intraperitoneally on D0. Dihydroqinghaosu-methylcarbamate, dihydroqinghaosu-butylcarbamate, dihydroqinghaosu-benzenecarbamate and dihydroqinghaosu-4-nitrobenzenecarbamate with different concentration were given once a day from D0 -D3. Blood smears from mouse's tail were made on D4, stained with Gimsa reagent and examined under microscope to count the infected and uninfected erthrocyte to get infected rate. Inhibitory rates of different dosages were calculated by following formula. The SD50 was calculated by the simplified probit analysis: [formula]

For `CNC(=O)OC1OC2OC3(C)CCC4C(C)CCC(C1C)C24OO3` (centres unmarked) [Dihydroqinghaosu-methylcarbamate, Dihydroqinghaosu-Methylcarbamate], the “Activity of reverse transcription (CPM)” value [1] was 4463 CPM and the ED50 [2] was 0.24 mg/kg.
